Read-outs that look alike come from different tables or passages of the source.
Assays:
Assay in all cases: HotSpot kinase profiling
Type in all cases: biochemical
CDK5/p25 = target: T1, CDK5/p25 (Homo sapiens, UniProt Q00535)
T1 construct: purchased Reaction Biology Corp
Outline: (§1)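 P81 filtration radiometric readout; 2 h incubation at room temperature; 0.1% phosphoric acid wash; DMSO negative control; % inhibition, mean of replicate runs.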

WEE1 = target: T2, WEE1 (Homo sapiens, UniProt P30291)
T2 construct: purchased Reaction Biology Corp
Outline: as §1

BMPR2 = target: T3, BMPR2 (Homo sapiens, UniProt Q13873)
T3 construct: purchased Reaction Biology Corp
T3 sequence (Q13873 27-1038): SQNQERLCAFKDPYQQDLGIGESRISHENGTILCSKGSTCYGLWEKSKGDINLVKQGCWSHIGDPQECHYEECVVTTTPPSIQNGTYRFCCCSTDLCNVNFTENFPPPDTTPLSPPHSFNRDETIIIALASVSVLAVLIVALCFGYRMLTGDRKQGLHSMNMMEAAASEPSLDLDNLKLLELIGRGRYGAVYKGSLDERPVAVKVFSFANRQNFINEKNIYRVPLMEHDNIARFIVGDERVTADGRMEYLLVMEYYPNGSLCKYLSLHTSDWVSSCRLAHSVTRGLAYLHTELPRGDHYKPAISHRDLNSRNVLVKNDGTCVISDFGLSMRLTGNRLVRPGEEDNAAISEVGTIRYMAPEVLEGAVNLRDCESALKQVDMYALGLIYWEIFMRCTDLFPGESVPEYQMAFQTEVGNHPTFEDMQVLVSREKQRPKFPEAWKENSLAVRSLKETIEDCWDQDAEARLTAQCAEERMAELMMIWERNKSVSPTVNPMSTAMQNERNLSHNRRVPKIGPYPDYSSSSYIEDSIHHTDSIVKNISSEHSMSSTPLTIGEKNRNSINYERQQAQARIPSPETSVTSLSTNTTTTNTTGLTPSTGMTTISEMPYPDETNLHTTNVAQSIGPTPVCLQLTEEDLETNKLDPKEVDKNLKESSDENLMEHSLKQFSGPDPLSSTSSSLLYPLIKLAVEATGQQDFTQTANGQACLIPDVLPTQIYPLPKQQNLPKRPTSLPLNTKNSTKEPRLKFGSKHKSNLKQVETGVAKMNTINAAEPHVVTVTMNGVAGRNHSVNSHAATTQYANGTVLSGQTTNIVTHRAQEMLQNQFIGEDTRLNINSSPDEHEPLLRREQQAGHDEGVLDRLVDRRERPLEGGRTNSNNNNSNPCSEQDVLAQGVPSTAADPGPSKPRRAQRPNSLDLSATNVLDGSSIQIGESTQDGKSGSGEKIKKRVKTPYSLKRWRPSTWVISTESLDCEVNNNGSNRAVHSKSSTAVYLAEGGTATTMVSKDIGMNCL
Outline: as §1

NEK1 = target: T4, NEK1 (Homo sapiens, UniProt Q96PY6)
T4 construct: purchased Reaction Biology Corp
T4 sequence (Q96PY6 1-1258): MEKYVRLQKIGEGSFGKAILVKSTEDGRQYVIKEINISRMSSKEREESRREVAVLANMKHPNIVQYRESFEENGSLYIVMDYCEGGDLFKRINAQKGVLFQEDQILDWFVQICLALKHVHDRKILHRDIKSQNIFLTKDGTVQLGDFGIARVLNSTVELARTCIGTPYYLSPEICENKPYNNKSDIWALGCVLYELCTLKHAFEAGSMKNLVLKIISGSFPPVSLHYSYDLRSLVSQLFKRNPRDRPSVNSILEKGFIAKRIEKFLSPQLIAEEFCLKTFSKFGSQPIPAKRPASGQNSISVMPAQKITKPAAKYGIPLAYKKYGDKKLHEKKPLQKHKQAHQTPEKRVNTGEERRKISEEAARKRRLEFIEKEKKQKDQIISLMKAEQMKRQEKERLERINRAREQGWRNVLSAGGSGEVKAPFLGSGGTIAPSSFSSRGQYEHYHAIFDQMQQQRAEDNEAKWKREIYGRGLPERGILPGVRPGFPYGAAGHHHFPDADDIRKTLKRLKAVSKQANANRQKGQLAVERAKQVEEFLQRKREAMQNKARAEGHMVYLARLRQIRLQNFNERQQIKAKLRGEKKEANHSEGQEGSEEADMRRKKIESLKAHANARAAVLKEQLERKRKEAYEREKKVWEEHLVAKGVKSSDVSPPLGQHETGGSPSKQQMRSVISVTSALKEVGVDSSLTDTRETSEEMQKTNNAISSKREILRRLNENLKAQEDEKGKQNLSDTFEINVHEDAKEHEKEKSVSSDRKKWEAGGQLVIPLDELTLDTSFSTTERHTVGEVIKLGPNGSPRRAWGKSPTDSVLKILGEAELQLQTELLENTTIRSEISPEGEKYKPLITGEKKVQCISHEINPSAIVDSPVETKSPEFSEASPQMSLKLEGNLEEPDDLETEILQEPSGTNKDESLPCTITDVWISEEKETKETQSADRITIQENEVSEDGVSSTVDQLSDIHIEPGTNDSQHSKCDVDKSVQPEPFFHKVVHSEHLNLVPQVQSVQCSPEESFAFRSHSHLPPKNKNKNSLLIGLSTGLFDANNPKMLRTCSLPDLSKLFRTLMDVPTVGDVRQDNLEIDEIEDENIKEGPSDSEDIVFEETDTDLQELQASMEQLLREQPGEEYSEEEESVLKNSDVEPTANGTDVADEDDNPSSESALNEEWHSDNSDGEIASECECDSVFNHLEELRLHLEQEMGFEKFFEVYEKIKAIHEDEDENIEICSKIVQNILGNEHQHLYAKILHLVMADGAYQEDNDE
Outline: as §1

[1] = read-out: % Enzyme Activity (relative to DMSO controls) Run 1
[2] = read-out: % Enzyme Activity (relative to DMSO controls) Run 2

T2 sequence (P30291 whole entry): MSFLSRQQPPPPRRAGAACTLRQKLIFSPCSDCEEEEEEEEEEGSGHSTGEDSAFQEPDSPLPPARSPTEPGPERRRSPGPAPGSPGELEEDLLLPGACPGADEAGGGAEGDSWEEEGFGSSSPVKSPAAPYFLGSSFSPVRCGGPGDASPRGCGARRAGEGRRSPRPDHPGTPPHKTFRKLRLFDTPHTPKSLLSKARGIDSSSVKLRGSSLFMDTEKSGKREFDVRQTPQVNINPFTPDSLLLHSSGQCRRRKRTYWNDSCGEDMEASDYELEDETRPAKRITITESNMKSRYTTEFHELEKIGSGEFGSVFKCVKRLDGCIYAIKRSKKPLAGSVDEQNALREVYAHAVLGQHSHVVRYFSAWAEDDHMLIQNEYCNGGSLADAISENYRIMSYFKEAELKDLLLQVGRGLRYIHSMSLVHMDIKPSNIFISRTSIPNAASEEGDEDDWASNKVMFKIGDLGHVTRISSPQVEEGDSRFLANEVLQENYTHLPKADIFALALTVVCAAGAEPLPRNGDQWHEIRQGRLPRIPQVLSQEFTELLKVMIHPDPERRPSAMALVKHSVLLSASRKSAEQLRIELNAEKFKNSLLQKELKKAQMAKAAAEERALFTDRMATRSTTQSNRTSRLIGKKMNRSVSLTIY
T1 sequence (Q00535 whole entry): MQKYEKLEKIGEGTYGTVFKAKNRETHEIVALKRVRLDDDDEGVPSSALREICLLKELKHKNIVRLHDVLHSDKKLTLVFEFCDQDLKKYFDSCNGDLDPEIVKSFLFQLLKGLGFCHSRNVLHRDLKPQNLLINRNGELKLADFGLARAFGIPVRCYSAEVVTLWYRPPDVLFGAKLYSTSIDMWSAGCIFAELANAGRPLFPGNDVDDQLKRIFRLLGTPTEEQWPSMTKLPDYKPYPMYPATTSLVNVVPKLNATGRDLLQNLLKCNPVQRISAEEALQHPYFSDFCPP
T1 sequence (Q15078 99-307 partner limits assumed): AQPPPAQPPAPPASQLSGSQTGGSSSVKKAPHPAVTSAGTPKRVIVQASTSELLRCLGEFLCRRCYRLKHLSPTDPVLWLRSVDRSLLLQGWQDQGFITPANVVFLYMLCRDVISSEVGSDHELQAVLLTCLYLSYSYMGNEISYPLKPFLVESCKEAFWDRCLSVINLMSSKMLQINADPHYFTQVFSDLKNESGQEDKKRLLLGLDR

C=CC(=O)Nc1cccc(Nc2nc(Nc3ccc(OCCOC)c(F)c3)ncc2F)c1 [Compound 2]
inhibition at 3 µM (CDK5/p25): 9.1% | remaining activity at 3 µM (CDK5/p25; [1]): 89.5% | remaining activity at 3 µM (CDK5/p25; [2]): 92.3% | inhibition at 3 µM (WEE1): 26% | remaining activity at 3 µM (WEE1; [1]): 73.1% | remaining activity at 3 µM (WEE1; [2]): 74.9% | inhibition at 3 µM (BMPR2): 16.2% | remaining activity at 3 µM (BMPR2; [1]): 83.8% | remaining activity at 3 µM (BMPR2; [2]): 83.8% | inhibition at 3 µM (NEK1): 46.6% | remaining activity at 3 µM (NEK1; [1]): 52.7% | remaining activity at 3 µM (NEK1; [2]): 54%

From patent US9492471B2, “Methods of treating a disease or disorder associated with Bruton'S Tyrosine Kinase” (Celgene Avilomics Research, Inc., priority 2013, dated 2016)
